According to patent publication US20150010928A1, “MEANS AND METHODS FOR ASSESSING AN ENDOCRINE DISEASE OR DISORDER” (priority 2012, published 2015):
Marks after values point to notes of the source that are not given here.

Test system: male rats
Assay: Plasma metabolite profiling (GC-MS, LC-MS, SPE-LC-MS) in male rats dosed once daily over 28 days (OECD 407)
Format: in vivo, rat
Details: for Cholesterol / Choline plasmalogen No 02 / Lignoceric acid (C24:0) / Sphingomyelin (d18:1, C16:0) / Sphingomyelin (d18:2, C16:0) / erythro-Sphingosine (d18:1) / 3,4-Dihydroxyphenylacetic acid (DOPAC) / Choline plasmalogen No 03 / Coenzyme Q10 / Elaidic acid (C18:trans[9]1) / Glycerol phosphate, lipid fraction / Glycerol, polar fraction / Lysophosphatidylcholine (C17:0) / Lysophosphatidylcholine (C18:0) / Lysophosphatidylcholine (C20:4) / Lysophosphatidylethanolamine (C22:0) / Phosphatidylcholine (C18:0, C20:3) / Phosphatidylcholine No 04 / Sphingomyelin (d18:2,C18:0) / Threonic acid / Tyrosine / beta-Sitosterol / myo-Inositol, lipid fraction / Alanine, ratio versus control / Androstenedione, ratio versus control / Cholesterol, ratio versus control / Glycine, ratio versus control / Heptadecanoic acid (C17:0), ratio versus control / Testosterone, ratio versus control / Threonine, ratio versus control / Uric acid, ratio versus control / alpha-Tocopherol, ratio versus control: high dose; for Alanine, ratio versus control / Androstenedione, ratio versus control / Cholesterol, ratio versus control / Glycine, ratio versus control / Heptadecanoic acid (C17:0), ratio versus control / Testosterone, ratio versus control / Threonine, ratio versus control / Uric acid, ratio versus control / alpha-Tocopherol, ratio versus control / Glucose, ratio versus control / Lysophosphatidylcholine (C20:4), ratio versus control / Threonic acid, ratio versus control: male rats, plasma; for Glucose, ratio versus control / Lysophosphatidylcholine (C20:4), ratio versus control / Threonic acid, ratio versus control: low dose
Experimental: Each dose group in the studies consisted of five rats per sex. Additional groups of each 5 male and female animals served as controls. […] All animals of the animal population were kept under the same constant temperature (20-24±3° C.) and the same constant humidity (30-70%). The animals of the animal population were fed ad libitum. The food to be used was essentially free of chemical or microbial contaminants. Drinking water was also offered ad libitum. Accordingly, the water was free of chemical and microbial contaminants as laid down in the European Drinking Water Directive 98/83/EG. The illumination period was 12 hours light followed by 12 hours darkness (12 hours light, from 6:00 to 18:00, and 12 hours darkness, from 18:00 to 6:00). […] The test substances (compounds) in the Tables 1 to 17 below were dosed and administered as described in the Table 18.
In the morning of day 7, 14, and 28, blood was taken from the retroorbital venous plexus from fasted anaesthetized animals. From each animal, 1 ml of blood was collected with EDTA as anticoagulant. The samples were centrifuged for generation of plasma. All plasma samples were covered with a N2 atmosphere and then stored at −80° C. until analysis.
For mass spectrometry-based metabolite profiling analyses plasma samples were extracted and a polar and a non-polar (lipid) fraction was obtained. For GC-MS analysis, the non-polar fraction was treated with methanol under acidic conditions to yield the fatty acid methyl esters. Both fractions were further derivatised with O-methyl-hydroxyamine hydrochloride and pyridine to convert Oxogroups to O-methyloximes and subsequently with a silylating agent before analysis. In LC-MS analysis, both fractions were reconstituted in appropriate solvent mixtures. HPLC was performed by gradient elution on reversed phase separation columns. Mass spectrometric detection which allows target and high sensitivity MRM (Multiple Reaction Monitoring) profiling in parallel to a full screen analysis was applied as described in WO2003073464.
Steroids and their metabolites were measured by online SPE-LC-MS (Solid phase extraction-LC-MS).
Following comprehensive analytical validation steps, the data for each analyte were normalized against data from pool samples. These samples were run in parallel through the whole process to account for process variability. The significance of treatment group values specific for sex, treatmentduration and metabolite was determined by comparing means of the treated groups to the means of the respective untreated control groups using WELCH-test and quantified with treatment ratios versus control and p-values.
The identification of the most important biomarkers per toxicity pattern was done by a ranking of the analytes in the tables below. Therefore the metabolic changes in reference treatments of a given pattern (shown in the table) were compared with changes of the same metabolite in other unrelated treatments. […] The maximum absolute value of the respective TVALUE was taken to indicate the most important metabolite for the pattern.

C#C[C@]1(O)CC[C@H]2[C@@H]3CCc4cc(O)ccc4[C@H]3CC[C@@]21C [17-alpha-Ethynylestradiol]
Cholesterol (m7, Table 14b): 0.19
Choline plasmalogen No 02 (m7, Table 14b): 0.28
Lignoceric acid (C24:0) (m7, Table 14b): 0.2
Sphingomyelin (d18:1, C16:0) (m7, Table 14b): 0.2
Sphingomyelin (d18:2, C16:0) (m7, Table 14b): 0.19
erythro-Sphingosine (d18:1) (m7, Table 14b): 0.09
3,4-Dihydroxyphenylacetic acid (DOPAC) (m7, Table 12d): 1.01
Choline plasmalogen No 02 (m7, Table 12d): 0.28 *
Choline plasmalogen No 03 (m7, Table 12d): 0.41 *
Coenzyme Q10 (m7, Table 12d): 0.16 *
Elaidic acid (C18:trans[9]1) (m7, Table 12d): 0.54 *
Glycerol phosphate, lipid fraction (m7, Table 12d): 0.22 *
Glycerol, polar fraction (m7, Table 12d): 0.68 *
Lysophosphatidylcholine (C17:0) (m7, Table 12d): 0.38 *
Lysophosphatidylcholine (C18:0) (m7, Table 12d): 0.77 *
Lysophosphatidylcholine (C20:4) (m7, Table 12d): 0.78 *
Lysophosphatidylethanolamine (C22:0) (m7, Table 12d): 0.28 *
Phosphatidylcholine (C18:0, C20:3) (m7, Table 12d): 0.21 *
Phosphatidylcholine No 04 (m7, Table 12d): 0.17 *
Sphingomyelin (d18:1, C16:0) (m7, Table 12d): 0.32 *
Sphingomyelin (d18:2, C16:0) (m7, Table 12d): 0.19 *
Sphingomyelin (d18:2,C18:0) (m7, Table 12d): 0.24 *
Threonic acid (m7, Table 12d): 0.47 *
Tyrosine (m7, Table 12d): 1.09
beta-Sitosterol (m7, Table 12d): 0.3 *
myo-Inositol, lipid fraction (m7, Table 12d): 0.22 *
Cholesterol (m14, Table 14b): 0.24
Choline plasmalogen No 02 (m14, Table 14b): 0.46
Lignoceric acid (C24:0) (m14, Table 14b): 0.21
Sphingomyelin (d18:1, C16:0) (m14, Table 14b): 0.37
Sphingomyelin (d18:2, C16:0) (m14, Table 14b): 0.24
erythro-Sphingosine (d18:1) (m14, Table 14b): 0.13
3,4-Dihydroxyphenylacetic acid (DOPAC) (m14, Table 12d): 0.58 *
Choline plasmalogen No 02 (m14, Table 12d): 0.46 *
Choline plasmalogen No 03 (m14, Table 12d): 0.43 *
Coenzyme Q10 (m14, Table 12d): 0.31 *
Elaidic acid (C18:trans[9]1) (m14, Table 12d): 0.63 *
Glycerol phosphate, lipid fraction (m14, Table 12d): 0.31 *
Glycerol, polar fraction (m14, Table 12d): 0.84
Lysophosphatidylcholine (C17:0) (m14, Table 12d): 0.58 *
Lysophosphatidylcholine (C18:0) (m14, Table 12d): 0.84 *
Lysophosphatidylcholine (C20:4) (m14, Table 12d): 0.83 *
Lysophosphatidylethanolamine (C22:0) (m14, Table 12d): 0.45 *
Phosphatidylcholine (C18:0, C20:3) (m14, Table 12d): 0.47 *
Phosphatidylcholine No 04 (m14, Table 12d): 0.42 *
Sphingomyelin (d18:1, C16:0) (m14, Table 12d): 0.4 *
Sphingomyelin (d18:2, C16:0) (m14, Table 12d): 0.24 *
Sphingomyelin (d18:2,C18:0) (m14, Table 12d): 0.18 *
Threonic acid (m14, Table 12d): 0.52 *
Tyrosine (m14, Table 12d): 0.96
beta-Sitosterol (m14, Table 12d): 0.38 *
myo-Inositol, lipid fraction (m14, Table 12d): 0.29 *
Cholesterol (m28, Table 14b): 0.39
Choline plasmalogen No 02 (m28, Table 14b): 0.55
Lignoceric acid (C24:0) (m28, Table 14b): 0.43
Sphingomyelin (d18:1, C16:0) (m28, Table 14b): 0.44
Sphingomyelin (d18:2, C16:0) (m28, Table 14b): 0.34
erythro-Sphingosine (d18:1) (m28, Table 14b): 0.24
3,4-Dihydroxyphenylacetic acid (DOPAC) (m28, Table 12d): 0.96
Choline plasmalogen No 02 (m28, Table 12d): 0.55 *
Choline plasmalogen No 03 (m28, Table 12d): 0.48 *
Coenzyme Q10 (m28, Table 12d): 0.37 *
Elaidic acid (C18:trans[9]1) (m28, Table 12d): 0.48 *
Glycerol phosphate, lipid fraction (m28, Table 12d): 0.29 *
Glycerol, polar fraction (m28, Table 12d): 0.63 *
Lysophosphatidylcholine (C17:0) (m28, Table 12d): 0.67 *
Lysophosphatidylcholine (C18:0) (m28, Table 12d): 0.89 *
Lysophosphatidylcholine (C20:4) (m28, Table 12d): 0.88 *
Lysophosphatidylethanolamine (C22:0) (m28, Table 12d): 0.54 *
Phosphatidylcholine (C18:0, C20:3) (m28, Table 12d): 0.79 *
Phosphatidylcholine No 04 (m28, Table 12d): 0.64 *
Sphingomyelin (d18:1, C16:0) (m28, Table 12d): 0.65 *
Sphingomyelin (d18:2, C16:0) (m28, Table 12d): 0.34 *
Sphingomyelin (d18:2,C18:0) (m28, Table 12d): 0.41 *
Threonic acid (m28, Table 12d): 0.54 *
Tyrosine (m28, Table 12d): 0.83 *
beta-Sitosterol (m28, Table 12d): 0.7 *
myo-Inositol, lipid fraction (m28, Table 12d): 0.53 *

CCNC(=O)[C@@H]1CCCN1C(=O)[C@H](CCCNC(=N)N)NC(=O)[C@H](CC(C)C)NC(=O)[C@@H](COC(C)(C)C)NC(=O)[C@H](Cc1ccc(O)cc1)NC(=O)[C@H](CO)NC(=O)[C@H](Cc1c[nH]c2ccccc12)NC(=O)[C@H](Cc1cnc[nH]1)NC(=O)[C@@H]1CCC(=O)N1 [Buserelin acetate a.c., Buserelin acetate]
Alanine, ratio versus control (day 7): 0.67 *
Androstenedione, ratio versus control (day 7): 0.17 *
Cholesterol, ratio versus control (day 7): 0.9 *
Glycine, ratio versus control (day 7): 0.83 *
Heptadecanoic acid (C17:0), ratio versus control (day 7): 0.81 *
Testosterone, ratio versus control (day 7): 0.11 *
Threonine, ratio versus control (day 7): 1.01 *
Uric acid, ratio versus control (day 7): 0.59 *
alpha-Tocopherol, ratio versus control (day 7): 0.88 *
Alanine, ratio versus control (day 14): 0.74 *
Androstenedione, ratio versus control (day 14): 0.5 *
Cholesterol, ratio versus control (day 14): 0.84 *
Glycine, ratio versus control (day 14): 0.91^
Heptadecanoic acid (C17:0), ratio versus control (day 14): 0.94 *
Testosterone, ratio versus control (day 14): 0.19 *
Threonine, ratio versus control (day 14): 0.92 *
Uric acid, ratio versus control (day 14): 076 *
alpha-Tocopherol, ratio versus control (day 14): 0.93 *
Alanine, ratio versus control (day 28): 0.78^
Androstenedione, ratio versus control (day 28): 0.35 *
Cholesterol, ratio versus control (day 28): 0.91^
Glycine, ratio versus control (day 28): 0.91 *
Heptadecanoic acid (C17:0), ratio versus control (day 28): 0.91 *
Testosterone, ratio versus control (day 28): 0.08 *
Threonine, ratio versus control (day 28): 1.01^
Uric acid, ratio versus control (day 28): 0.85 *
alpha-Tocopherol, ratio versus control (day 28): 1.03^

OCCNCCO [Diethanolamine]
Cholesterol (m7, Table 14b): 0.75
Choline plasmalogen No 02 (m7, Table 14b): 0.89
Lignoceric acid (C24:0) (m7, Table 14b): 0.7
Sphingomyelin (d18:1, C16:0) (m7, Table 14b): 0.68
Sphingomyelin (d18:2, C16:0) (m7, Table 14b): 0.74
erythro-Sphingosine (d18:1) (m7, Table 14b): 0.62
Cholesterol (m14, Table 14b): 0.72
Choline plasmalogen No 02 (m14, Table 14b): 0.68
Lignoceric acid (C24:0) (m14, Table 14b): 0.68
Sphingomyelin (d18:1, C16:0) (m14, Table 14b): 0.71
Sphingomyelin (d18:2, C16:0) (m14, Table 14b): 0.73
erythro-Sphingosine (d18:1) (m14, Table 14b): 0.58
Cholesterol (m28, Table 14b): 0.69
Choline plasmalogen No 02 (m28, Table 14b): 0.74
Lignoceric acid (C24:0) (m28, Table 14b): 0.67
Sphingomyelin (d18:1, C16:0) (m28, Table 14b): 0.7
Sphingomyelin (d18:2, C16:0) (m28, Table 14b): 0.63
erythro-Sphingosine (d18:1) (m28, Table 14b): 0.52

OC(c1ccc(Cl)cc1)(c1cncnc1)c1ccccc1Cl (stereo not drawn) [Fenarimol]
Glucose, ratio versus control (day 7): 0.9
Lysophosphatidylcholine (C20:4), ratio versus control (day 7): 0.99
Threonic acid, ratio versus control (day 7): 1.37 *
Glucose, ratio versus control (day 14): 0.9 *
Lysophosphatidylcholine (C20:4), ratio versus control (day 14): 0.96 *
Threonic acid, ratio versus control (day 14): 1.3 *
Glucose, ratio versus control (day 28): 0.91 *
Lysophosphatidylcholine (C20:4), ratio versus control (day 28): 0.97 *
Threonic acid, ratio versus control (day 28): 1.34 *
